In PubChem BioAssay (NCI):
“And” between values parts separate entries of the source, which are not always exact repeats. Identical values can stand only once.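 All cell lines were grown in 96-well plates and treated with compound for 48 hours. At the GI50, growth is halved. TGI denotes the concentration required for complete inhibition of growth.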

Assays:
Assay in all cases: NCI-60 cell line screen, 48 h
[1] = test system: 786-0 renal
[2] = test system: A549 NSCLC
[3] = test system: COLO 205 colon
[4] = test system: KM12 colon
[5] = test system: OVCAR-4 ovarian
[6] = test system: OVCAR-5 ovarian
[7] = test system: RXF 393 renal
[8] = test system: SF-295 CNS
[9] = test system: SK-MEL-2 melanoma
[10] = test system: SNB-75 CNS

For `COc1ccc(C2=Nc3ccccc3SC(C)C2)cc1` (stereo unspecified), the TGI [1] was over 100 µM, the TGI [2] was over 100 µM and the TGI [3] was over 100 µM. The TGI [4] was over 100 µM, the TGI [5] was over 100 µM and the TGI [6] was over 100 µM. For the same compound, the TGI [7] was over 100 µM, the TGI [8] was over 100 µM and the TGI [9] was over 100 µM. It also gave a TGI [10] of over 100 µM.

`CN(Cc1cnc(N)nc1N)c1ccc(C(=O)O)cc1` gave a GI50 [1] of over 100 µM, a TGI [1] of over 100 µM and a GI50 [2] of over 100 µM. It also gave a TGI [2] of over 100 µM, a GI50 [3] of over 100 µM and a TGI [3] of over 100 µM. It also gave a GI50 [4] of over 100 µM, a TGI [4] of over 100 µM and a GI50 [5] of over 100 µM. It also gave a TGI [5] of over 100 µM, a GI50 [6] of over 100 µM and a TGI [6] of over 100 µM. The GI50 [7] was over 100 µM, the TGI [7] was over 100 µM and the GI50 [8] was over 100 µM. For the same compound, the TGI [8] was over 100 µM, the GI50 [9] was over 100 µM and the TGI [9] was over 100 µM. For the same compound, the GI50 [10] was over 100 µM and the TGI [10] was over 100 µM.

With `CN(CCC#N)c1ccc(/C=C(\C#N)c2cccc(C(F)(F)F)c2)cc1` the GI50 [1] was 4.15 µM, the TGI [1] was over 100 µM and the GI50 [3] was 3.81 µM. The TGI [3] was over 100 µM, the GI50 [4] was 2.97 µM and the TGI [4] was over 100 µM. The GI50 [5] was 4.71 µM, the TGI [5] was over 100 µM and the GI50 [6] was 6.73 µM. For the same compound, the TGI [6] was over 100 µM, the GI50 [7] was 3.75 µM and the TGI [7] was over 100 µM. For the same compound, the GI50 [8] was 3.87 µM, the TGI [8] was over 100 µM and the GI50 [9] was 2.57 µM. For the same compound, the TGI [9] was 8.11 µM, the GI50 [10] was 4.47 µM and the TGI [10] was over 100 µM.

`CNC(=S)N/N=C1\CC(c2ccccc2)Oc2ccccc21` (stereo unspecified) showed a TGI [1] of over 100 µM, a TGI [2] of over 100 µM and a TGI [3] of over 100 µM. It also gave a TGI [4] of over 100 µM, a TGI [5] of over 100 µM and a TGI [6] of over 100 µM. It also gave a TGI [7] of over 100 µM, a TGI [8] of over 100 µM and a TGI [9] of over 100 µM. The TGI [10] was over 100 µM.

`CCNC(C)(C)C(SS)c1ccc(Br)cc1` (stereo unspecified) showed a TGI [1] of 49.6 µM, a TGI [2] of over 100 µM and a TGI [3] of over 100 µM. The TGI [4] was over 100 µM, the TGI [5] was over 100 µM and the TGI [6] was over 100 µM. For the same compound, the TGI [7] was over 100 µM, the TGI [8] was over 100 µM and the TGI [9] was over 100 µM. It also gave a TGI [10] of over 100 µM.

For `CC1(C)C(c2ccccc2)=NN(O)c2ccccc21`, the TGI [1] was over 100 µM, the TGI [2] was over 100 µM and the TGI [3] was over 100 µM. It also gave a TGI [4] of over 100 µM, a TGI [5] of over 100 µM and a TGI [6] of over 100 µM. It also gave a TGI [7] of over 100 µM, a TGI [8] of over 100 µM and a TGI [9] of over 100 µM. For the same compound, the TGI [10] was over 100 µM.

For `Cc1c(C)c2c(c(C)c1NC(=O)/C=C\C(=O)O)CCC(C)(CCCC(C)CCCC(C)CCCC(C)C)O2` (stereo unspecified), the GI50 [1] was 1.69 µM, the TGI [1] was 3.06 µM and the GI50 [2] was 1.79 µM. The TGI [2] was 3.62 µM, the GI50 [3] was 1.75 µM and the TGI [3] was 3.54 µM. For the same compound, the GI50 [4] was 1.67 µM, the TGI [4] was 3.17 µM and the GI50 [5] was 2.52 µM. The TGI [5] was 5.16 µM, the GI50 [6] was 1.72 µM and the TGI [6] was 4.05 µM. For the same compound, the GI50 [7] was 1.74 µM, the TGI [7] was 3.23 µM and the GI50 [8] was 1.32 µM. It also gave a TGI [8] of 2.77 µM, a GI50 [9] of 1.86 µM and a TGI [9] of 3.68 µM. For the same compound, the GI50 [10] was 1.31 µM and the TGI [10] was 2.58 µM.

Compound `COc1c(C2=NC(C(C)C)CO2)ccc2ccccc12` (stereo unspecified) has a TGI [1] of over 100 µM, a TGI [2] of over 100 µM and a TGI [3] of over 100 µM. For the same compound, the TGI [4] was over 100 µM, the TGI [5] was over 100 µM and the TGI [6] was over 100 µM. The TGI [7] was 86.8 µM, the TGI [8] was over 100 µM and the TGI [9] was over 100 µM. For the same compound, the TGI [10] was over 100 µM.

`NC(C/[N+]([O-])=N/O)C(=O)O` (stereo unspecified) was tested, and the GI50 [1] was 1.16 µM and 9.72 µM and 4.15 µM, the TGI [1] was over 500 µM and the GI50 [2] was 0.24 µM. The TGI [2] was > 100 µM and 67.9 µM, the GI50 [3] was 21.6 µM and 69.7 µM and 17.4 µM and the TGI [3] was > 62.7 µM and > 100 µM and 256 µM. For the same compound, the GI50 [4] was 0.543 µM, the TGI [4] was 31.1 µM and > 100 µM and 144 µM and the GI50 [5] was 23.6 µM and > 100 µM and 21.2 µM. For the same compound, the TGI [5] was over 449 µM, the TGI [6] was > 100 µM and 230 µM and the GI50 [7] was 93.2 µM and > 100 µM and 29 µM. The TGI [7] was > 100 µM and 381 µM, the GI50 [8] was 6.24 µM and the TGI [8] was over 500 µM. The GI50 [9] was 115 µM, the TGI [9] was > 100 µM and 359 µM and the GI50 [10] was 13.4 µM and 10.2 µM and 101 µM. It also gave a TGI [10] of over 500 µM.

`Cc1cc(=O)oc2c(CN3CCCCC3)c(O)ccc12` showed a TGI [1] of over 100 µM, a TGI [2] of over 100 µM and a TGI [3] of over 100 µM. It also gave a TGI [5] of over 100 µM, a TGI [6] of over 100 µM and a TGI [7] of over 100 µM. It also gave a TGI [8] of over 100 µM, a TGI [9] of over 100 µM and a TGI [10] of over 100 µM.

Work on `CCCN(CCCN)/[N+]([O-])=N\O` yielded a TGI [1] of over 100 µM, a TGI [2] of over 100 µM and a TGI [3] of over 100 µM. It also gave a TGI [4] of over 100 µM, a TGI [5] of over 100 µM and a TGI [6] of over 100 µM. The TGI [7] was over 100 µM, the TGI [8] was over 100 µM and the TGI [9] was over 100 µM. For the same compound, the TGI [10] was over 100 µM.

`O=C(CC(=O)c1ccc([N+](=O)[O-])cc1)C(=O)Nc1nccs1` showed a TGI [1] of over 100 µM, a TGI [2] of over 100 µM and a TGI [3] of over 100 µM. The TGI [4] was over 100 µM, the TGI [5] was over 100 µM and the TGI [6] was over 100 µM. It also gave a TGI [7] of over 100 µM, a TGI [9] of over 100 µM and a TGI [10] of over 100 µM.

`N=Nc1c(OC(=O)Nc2ccccc2)[nH]c2ccccc12` was tested, and the TGI [1] was 32.6 µM, the TGI [2] was 44.4 µM and the TGI [3] was 42.9 µM. It also gave a TGI [4] of 29.3 µM, a TGI [5] of 30.7 µM and a TGI [6] of over 100 µM. It also gave a TGI [7] of 28.7 µM, a TGI [8] of 30.2 µM and a TGI [9] of 44.6 µM. For the same compound, the TGI [10] was 50 µM.

In the case of `O=S1CSCS1` (stereo unspecified), the TGI [1] is reported as over 100 µM, the TGI [2] is reported as over 100 µM and the TGI [3] is reported as over 100 µM. For the same compound, the TGI [4] was over 100 µM, the TGI [5] was over 100 µM and the TGI [6] was over 100 µM. For the same compound, the TGI [7] was over 100 µM, the TGI [8] was over 100 µM and the TGI [9] was over 100 µM. For the same compound, the TGI [10] was over 100 µM.

Work on `CC(=O)OCCOCNC(=S)N/N=C/c1ccc2ccccc2n1` yielded a TGI [1] of over 100 µM, a TGI [2] of over 100 µM and a TGI [3] of 46.6 µM. It also gave a TGI [4] of over 100 µM, a TGI [5] of over 100 µM and a TGI [6] of 65.5 µM. The TGI [7] was over 100 µM, the TGI [8] was over 100 µM and the TGI [9] was over 100 µM. For the same compound, the TGI [10] was over 100 µM.

In the case of `CC1(C)C(c2ccccc2)C12CCC1(C2=O)C(c2ccccc2)C1(C)C` (stereo unspecified), the TGI [1] is reported as 66.2 µM, the TGI [2] is reported as 75.7 µM and the TGI [3] is reported as 33.6 µM. For the same compound, the TGI [5] was over 100 µM, the TGI [6] was 81.8 µM and the TGI [7] was 45.7 µM. It also gave a TGI [8] of 47.2 µM, a TGI [9] of 37 µM and a TGI [10] of 90.1 µM.

`Cc1ccc(NC(=O)CC/C(CC(=O)C(C)(C)C)=N/NC(=O)C(N)=O)cc1C` gave a TGI [1] of over 100 µM, a TGI [2] of over 100 µM and a TGI [3] of over 100 µM. The TGI [4] was over 100 µM, the TGI [5] was over 100 µM and the TGI [6] was over 100 µM. It also gave a TGI [7] of over 100 µM, a TGI [8] of over 100 µM and a TGI [9] of over 100 µM. It also gave a TGI [10] of over 100 µM.

In the case of `Clc1ccccc1C(n1ncc2ccccc21)n1ncc2ccccc21`, the TGI [1] is reported as over 100 µM, the TGI [4] is reported as over 100 µM and the TGI [5] is reported as over 100 µM. The TGI [6] was over 100 µM, the TGI [7] was over 100 µM and the TGI [8] was over 100 µM. For the same compound, the TGI [9] was over 100 µM and the TGI [10] was 65.6 µM.

`O=C(Cc1nc2ccccc2c(=O)n1-c1c(Cl)cccc1Cl)c1ccncc1` was tested, and the TGI [1] was 88.9 µM, the TGI [2] was 46.9 µM and the TGI [3] was 33.6 µM. It also gave a TGI [4] of 32.3 µM, a TGI [5] of 80.7 µM and a TGI [7] of 65.7 µM. It also gave a TGI [8] of 36.5 µM, a TGI [9] of 46.3 µM and a TGI [10] of 68.2 µM.
